{"source": "ChEMBL document CHEMBL1147603", "about": "“Fluoropyrrolidine amides as dipeptidyl peptidase IV inhibitors” (Bioorg Med Chem Lett, 2004)", "key": {"[1]": {"experiment": "(§1) Half-life period was determined after 1 mg/kg (i.v.) / 2 mg/kg (p.o.) of compound administration", "type": "ADME, organism-based", "settings": "rat, in vivo"}, "[2]": {"experiment": "(§2) Plasma clearance was determined after 1 mg/kg (i.v.) / 2 mg/kg (p.o.) of compound administration", "type": "ADME, organism-based", "settings": "rat, iv, read-out: Clp"}, "[3]": {"experiment": "(§3) Volume of distribution at steady state was determined after 1 mg/kg (i.v.) / 2 mg/kg (p.o.) of compound administration", "type": "ADME, organism-based, Canis lupus familiaris", "settings": "dog, in vivo, iv, read-out: Vdss"}, "[4]": {"experiment": "as §2", "type": "ADME, organism-based, Canis lupus familiaris", "settings": "dog, iv, read-out: Clp"}, "[5]": {"experiment": "as §3", "type": "ADME, organism-based", "settings": "rat, in vivo, iv, read-out: Vdss"}, "[6]": {"experiment": "as §1", "type": "ADME, organism-based, Canis lupus familiaris", "settings": "dog, in vivo"}, "[7]": {"experiment": "(§4) Maximum plasma concentration reached by compound was determined after 2 mg/kg (p.o.) administration", "type": "ADME, organism-based, Canis lupus familiaris", "parameters": "dose 2 mg/kg, route oral", "settings": "dog, po"}, "[8]": {"experiment": "as §4", "type": "ADME, organism-based", "parameters": "dose 2 mg/kg, route oral", "settings": "rat, po"}}}
{"compound": "N[C@H](C(=O)N1CC[C@H](F)C1)[C@H]1CC[C@H](NS(=O)(=O)c2ccc(F)cc2F)CC1", "values": [{"measurement": "half-life", "setting": "[1]", "value": 1.6, "unit": "h"}, {"measurement": "clearance", "setting": "[2]", "value": 24, "unit": "mL/min/kg"}, {"measurement": "Vd", "setting": "[3]", "value": 4.4, "unit": "L/kg"}, {"measurement": "clearance", "setting": "[4]", "value": 9.1, "unit": "mL/min/kg"}, {"measurement": "Vd", "setting": "[5]", "value": 2.5, "unit": "L/kg"}, {"measurement": "half-life", "setting": "[6]", "value": 5.9, "unit": "h"}, {"measurement": "Cmax", "setting": "[7]", "value": 1000, "unit": "nM"}, {"measurement": "Cmax", "setting": "[8]", "value": 400, "unit": "nM"}]}
